Measured values: US20220386606A1, “SPECIFICALLY SUBSTITUTED 3-PHENYL-5-SPIROCYCLOPENTYL-3-PYRROLIN-2-ONES AND THEIR USE AS HERBICIDES” (Bayer Aktiengesellschaft, priority 2019, published 2022)

What was measured:
LOLRI [1] = test: Pre-emergence herbicidal action against LOLRI (Table 8, titled post-emergence at 320 g/ha); format: in vivo, Lolium rigidum; conditions: table stands in the pre-emergence section
Procedure, shortened: (§1)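 Visual scoring after 3 weeks in the greenhouse gives percent activity (100% = dead, 0% = like untreated). Compounds, formulated as WP or EC, were applied to the soil surface over freshly sown seeds in sandy loam, water rate 600 to 800 L/ha plus 0.2% wetting agent.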

ALOMY [2] = test: Pre-emergence herbicidal action against ALOMY; format: in vivo, Alopecurus myosuroides; conditions: 320 g/ha, scored visually after 3 weeks vs untreated controls
Procedure, shortened: as §1

DIGSA [3] = test: Post-emergence herbicidal action against DIGSA; format: in vivo, Digitaria sanguinalis; conditions: 80 g/ha, visual assessment about 3 weeks after treatment vs untreated controls
Procedure, shortened: (§2)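 Sow in sandy loam and grow in the greenhouse for 2 to 3 weeks to the one-leaf stage. Spray the compound as an aqueous suspension or emulsion with 0.2% wetting agent, 600 to 800 l/ha water rate. Hold about 3 weeks, then score damage visually versus controls.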

ECHCG [4] = test: Post-emergence herbicidal action against ECHCG; format: in vivo, Echinochloa crus-galli; conditions: 80 g/ha, visual assessment about 3 weeks after treatment vs untreated controls
Procedure, shortened: as §2

VERPE = test: Pre-emergence herbicidal action against VERPE; format: in vivo, Veronica persica; conditions: 320 g/ha
Procedure, shortened: as §1

AVEFA [5] = test: Pre-emergence herbicidal action against AVEFA; format: in vivo, Avena fatua; conditions: 320 g/ha, scored visually after 3 weeks vs untreated controls
Procedure, shortened: as §1

DIGSA [6] = test: Pre-emergence herbicidal action against DIGSA; format: in vivo, Digitaria sanguinalis; conditions: 320 g/ha, scored visually after 3 weeks vs untreated controls
Procedure, shortened: as §1

ECHCG [7] = test: Pre-emergence herbicidal action against ECHCG; format: in vivo, Echinochloa crus-galli; conditions: 320 g/ha, scored visually after 3 weeks vs untreated controls
Procedure, shortened: as §1

SETVI [8] = test: Pre-emergence herbicidal action against SETVI; format: in vivo, Setaria viridis; conditions: 320 g/ha, scored visually after 3 weeks vs untreated controls
Procedure, shortened: as §1

LOLRI [9] = test: Post-emergence herbicidal action against LOLRI; format: in vivo, Lolium rigidum; conditions: 80 g/ha, visual assessment about 3 weeks after treatment vs untreated controls
Procedure, shortened: as §2

SETVI [10] = test: Post-emergence herbicidal action against SETVI; format: in vivo, Setaria viridis; conditions: 80 g/ha, visual assessment about 3 weeks after treatment vs untreated controls
Procedure, shortened: as §2

ALOMY [11] = test: Post-emergence herbicidal action against ALOMY; format: in vivo, Alopecurus myosuroides; conditions: 80 g/ha, visual assessment after about 3 weeks
Procedure, shortened: as §2

MATIN = test: Pre-emergence herbicidal action against MATIN; format: in vivo; conditions: 320 g/ha
Procedure, shortened: as §1

AVEFA [12] = test: Post-emergence herbicidal action against AVEFA; format: in vivo, Avena fatua; conditions: 80 g/ha, visual assessment after about 3 weeks
Procedure, shortened: as §2

VIOTR = test: Pre-emergence herbicidal action against VIOTR; format: in vivo, Viola tricolor; conditions: 320 g/ha
Procedure, shortened: as §1

ABUTH [13] = test: Pre-emergence herbicidal action against ABUTH; format: in vivo, Abutylon threophrasti; conditions: 320 g/ha
Source text: Seeds of monocotyledonous and dicotyledonous weed plants and crop plants are laid out in sandy loam soil in wood-fiber pots and covered with soil. The compounds of the invention, formulated in the form of wettable powders (WP) or as emulsion concentrates (EC), are then applied to the surface of the covering soil as aqueous suspension or emulsion at a water application rate equating to 600 to 800 L/ha with addition of 0.2% wetting agent.
After the treatment, the pots are placed in a greenhouse and kept under good growth conditions for the trial plants. The damage to the test plants is scored visually after a test period of 3 weeks by comparison with untreated controls (herbicidal activity in percent (%): 100% activity=the plants have died, 0% activity=like control plants).

AMARE = test: Pre-emergence herbicidal action against AMARE; format: in vivo, Amaranthus retroflexus; conditions: 320 g/ha
Procedure, shortened: as §1

POLCO = test: Pre-emergence herbicidal action against POLCO; format: in vivo, Polygonum convolvulus; conditions: 320 g/ha
Procedure, shortened: as §1

ABUTH [14] = test: Post-emergence herbicidal action against ABUTH; format: in vivo, Abutylon threophrasti; conditions: 80 g/ha, visual assessment about 3 weeks after treatment vs untreated controls
Procedure, shortened: as §2

Structure (SMILES) | Pre-emergence herbicidal action against LOLRI in % (LOLRI [1]) [%] | Pre-emergence action against ALOMY in % (ALOMY [2]) [%] | Post-emergence action against DIGSA in % (DIGSA [3]) [%] | Post-emergence action against ECHCG in % (ECHCG [4]) [%] | Pre-emergence action against VERPE in % (VERPE) [%] | Pre-emergence action against AVEFA in % (AVEFA [5]) [%] | Pre-emergence action against DIGSA in % (DIGSA [6]) [%] | Pre-emergence action against ECHCG in % (ECHCG [7]) [%] | Pre-emergence action against SETVI in % (SETVI [8]) [%] | Post-emergence action against LOLRI in % (LOLRI [9]) [%] | Post-emergence action against SETVI in % (SETVI [10]) [%] | Post-emergence action against ALOMY in % (ALOMY [11]) [%] | Pre-emergence action against MATIN in % (MATIN) [%] | Post-emergence action against AVEFA in % (AVEFA [12]) [%] | Pre-emergence action against VIOTR in % (VIOTR) [%] | Pre-emergence action against ABUTH in % (ABUTH [13]) [%] | Pre-emergence action against AMARE in % (AMARE) [%] | Pre-emergence action against POLCO in % (POLCO) [%] | Post-emergence action against ABUTH in % (ABUTH [14]) [%]
CC#Cc1cc(C)c(C2=C(O)C3(CCC(COCC)C3)NC2=O)c(Cl)c1 (stereo not shown) [Example I-17] | 100 | 100 | 100 | 100 | 90 | 100 | 100 | 100 | 100 | 100 | 100 | 100 | 90 | 90 | 100 | 90 | 100 | – | –
CC#Cc1cc(C)c(C2=C(O)C3(CCC(COC)C3)NC2=O)c(Br)c1 (stereo not shown) [Example I-18] | 100 | 100 | 100 | 100 | – | 100 | 100 | 100 | 100 | 100 | 100 | 100 | – | 100 | 100 | 80 | 100 | 100 | 80
CC#Cc1cc(C)c(C2=C(O)C3(CCC(COCCOC)C3)NC2=O)c(Cl)c1 (stereo not shown) [Example I-50] | 100 | 100 | – | 100 | – | 100 | 100 | 100 | 100 | 90 | 100 | 100 | 80 | 80 | 100 | 100 | 80 | 90 | –
CC#Cc1cc(Cl)c(C2=C(O)C3(CCC(COC)C3)NC2=O)c(OC)c1 (stereo not shown) [Example I-72] | 100 | 100 | 100 | 100 | – | 100 | 100 | 100 | 100 | 100 | 100 | 90 | 100 | 100 | 100 | 100 | – | – | –
CC#Cc1cc(Cl)c(C2=C(O)C3(CCC(COC)C3)NC2=O)c(OC)c1 (stereo not shown) [Example I-73] | 100 | 100 | 100 | 100 | 90 | 100 | 100 | 100 | 100 | 100 | 100 | 100 | 90 | 100 | 100 | 100 | 100 | – | –
CC#Cc1cc(C)c(C2=C(OC(=O)OCC)C3(CCC(COCCOC)C3)NC2=O)c(Cl)c1 (stereo not shown) [Example P-75] | 100 | 100 | 90 | 100 | 90 | 100 | 100 | 100 | 100 | 100 | 100 | 100 | 90 | 90 | 100 | 80 | 100 | 80 | –
CC#Cc1cc(Cl)c(C2=C(OC(=O)OCC)C3(CCC(COC)C3)NC2=O)c(OC)c1 (stereo not shown) [Example P-97] | 100 | 100 | 100 | 100 | 100 | 100 | 100 | 100 | 100 | 100 | 100 | 100 | 100 | 100 | 90 | 100 | 100 | – | –
CC#Cc1cc(Cl)c(C2=C(OC(=O)OCC)C3(CCC(COC)C3)NC2=O)c(OC)c1 (stereo not shown) [Example P-98] | 100 | 100 | 100 | 100 | 100 | 100 | 100 | 100 | 100 | 100 | 100 | 100 | 90 | 90 | 100 | 90 | 100 | – | –
C#CCOCC1CCC2(C1)NC(=O)C(c1c(C)cc(C#CC)cc1Cl)=C2OC(=O)OCC (stereo not shown) [Example P-100] | 100 | 100 | 90 | 100 | 90 | 90 | 100 | 100 | 100 | 100 | 100 | 100 | 90 | 80 | 100 | 80 | 100 | – | –
